In patent US9987276B2 (Celgene CAR LLC, priority 2008, dated 2018):
Entries after “also recorded” stand apart in the source; their conditions may differ.

Experiments:
[1] = system: TI-2 independent B cell activation; test: In vivo thymus-independent (TI-2) B cell activation; settings: C57/B6 mice, 100 mg/kg daily day 0 through 5, TNP-Ficoll, serum day 6
[2] = target: T1, BTK (Homo sapiens (Human), UniProt Q06187); test: BTK occupancy in Ramos cells with I-7 and probe I-215 using streptavidin beads; type: cell-based; settings: 1 hour, higher concentrations of I-7 (0.1, 0.05 μM)
T1 sequence (Q06187 whole entry): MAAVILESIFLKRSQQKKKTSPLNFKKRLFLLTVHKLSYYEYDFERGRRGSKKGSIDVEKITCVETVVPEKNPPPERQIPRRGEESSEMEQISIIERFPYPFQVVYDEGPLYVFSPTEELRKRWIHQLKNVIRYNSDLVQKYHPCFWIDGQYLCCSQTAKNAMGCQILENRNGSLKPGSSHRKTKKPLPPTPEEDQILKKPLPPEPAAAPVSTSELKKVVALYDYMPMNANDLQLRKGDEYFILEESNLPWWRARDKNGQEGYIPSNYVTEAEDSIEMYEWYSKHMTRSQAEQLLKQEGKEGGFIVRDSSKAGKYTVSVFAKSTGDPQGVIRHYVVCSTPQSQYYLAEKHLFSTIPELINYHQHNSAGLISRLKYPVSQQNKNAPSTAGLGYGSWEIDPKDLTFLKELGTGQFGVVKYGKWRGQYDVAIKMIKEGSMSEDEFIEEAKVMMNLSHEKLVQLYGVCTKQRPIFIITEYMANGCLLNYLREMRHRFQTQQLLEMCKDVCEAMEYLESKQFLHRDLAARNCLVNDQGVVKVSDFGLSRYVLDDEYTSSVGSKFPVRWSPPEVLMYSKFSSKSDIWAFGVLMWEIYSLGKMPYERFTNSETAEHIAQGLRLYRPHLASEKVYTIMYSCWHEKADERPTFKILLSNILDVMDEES
Method: Ramos cells were incubated with 0.1, 0.05, 0.01, or 0.001 μM I-7 in serum free media for 1 hour at 37° C. The cells were pelleted by centrifugation and lysed in Cell Extraction buffer (Invitrogen) for 10 minutes on ice, centrifuged (10 minutes at 14,000 rpm) and the supernatant was collected. Cell lysates were incubated with 1 μM I-215 for 1 hour at room temperature, then incubated with streptavidin-coupled agarose beads (ThermoFisher) overnight at 4° C. The beads were washed three times with lysis buffer and the bound proteins were boiled off the beads at 95° C. for 5 minutes in 4×LDS Sample Buffer. The amount of BTK associated with the probe I-215 was assessed by BTK western blot. All values were normalized to the DMSO-treated sample which is set to 100%.

[3] = Collagen antibody induced arthritis model; type: in vivo; settings: Dose 30 mg/kg
Method: On day 0 baseline footpad measurements were made and animals were distributed to the experimental groups in such a way as to generate groups with no significant differences between the groups. Each animal was then inoculated intravenously with 2 mg Arthritomab monoclonal antibody cocktail. Treatment with test agents began at this time. On day 6, each animal was injected intraperitoneally with 50 μg LPS in 200 μl of sterile PBS. Footpad measurements and clinical scoring were conducted on days 6, 7, 8, 9, 10, 11, 12, 14, 18, and 21.

[4] = target: T1, BTK; test: Washout experiment with I-7 and probe compound I-215 in Ramos cells; type: cell-based; settings: 0.1 μM for 1 hour
[5] = target: T1, BTK; test: Mass spectrometry for BTK (intact protein); type: binding; settings: 1 hr, 10× fold excess of compound
Method: Intact BTK was incubated for 1 hr at a 10× fold excess of I-7 to protein. Aliquots (2 μl) of the samples were diluted with 10 μl of 0.1% TFA prior to micro C4 ZipTipping directly onto the MALDI target using Sinapinic acid as the desorption matrix (10 mg/ml in 0.1% TFA:Acetonitrile 20:80).

[6] = target: JAK3 kinase (Homo sapiens (Human), UniProt P52333); test: Mass spectrometry for Janus-3 kinase (JAK3); type: binding; settings: 3 hrs at 10× excess, tryptic digest
Chain of JAK3 kinase (P52333 whole entry): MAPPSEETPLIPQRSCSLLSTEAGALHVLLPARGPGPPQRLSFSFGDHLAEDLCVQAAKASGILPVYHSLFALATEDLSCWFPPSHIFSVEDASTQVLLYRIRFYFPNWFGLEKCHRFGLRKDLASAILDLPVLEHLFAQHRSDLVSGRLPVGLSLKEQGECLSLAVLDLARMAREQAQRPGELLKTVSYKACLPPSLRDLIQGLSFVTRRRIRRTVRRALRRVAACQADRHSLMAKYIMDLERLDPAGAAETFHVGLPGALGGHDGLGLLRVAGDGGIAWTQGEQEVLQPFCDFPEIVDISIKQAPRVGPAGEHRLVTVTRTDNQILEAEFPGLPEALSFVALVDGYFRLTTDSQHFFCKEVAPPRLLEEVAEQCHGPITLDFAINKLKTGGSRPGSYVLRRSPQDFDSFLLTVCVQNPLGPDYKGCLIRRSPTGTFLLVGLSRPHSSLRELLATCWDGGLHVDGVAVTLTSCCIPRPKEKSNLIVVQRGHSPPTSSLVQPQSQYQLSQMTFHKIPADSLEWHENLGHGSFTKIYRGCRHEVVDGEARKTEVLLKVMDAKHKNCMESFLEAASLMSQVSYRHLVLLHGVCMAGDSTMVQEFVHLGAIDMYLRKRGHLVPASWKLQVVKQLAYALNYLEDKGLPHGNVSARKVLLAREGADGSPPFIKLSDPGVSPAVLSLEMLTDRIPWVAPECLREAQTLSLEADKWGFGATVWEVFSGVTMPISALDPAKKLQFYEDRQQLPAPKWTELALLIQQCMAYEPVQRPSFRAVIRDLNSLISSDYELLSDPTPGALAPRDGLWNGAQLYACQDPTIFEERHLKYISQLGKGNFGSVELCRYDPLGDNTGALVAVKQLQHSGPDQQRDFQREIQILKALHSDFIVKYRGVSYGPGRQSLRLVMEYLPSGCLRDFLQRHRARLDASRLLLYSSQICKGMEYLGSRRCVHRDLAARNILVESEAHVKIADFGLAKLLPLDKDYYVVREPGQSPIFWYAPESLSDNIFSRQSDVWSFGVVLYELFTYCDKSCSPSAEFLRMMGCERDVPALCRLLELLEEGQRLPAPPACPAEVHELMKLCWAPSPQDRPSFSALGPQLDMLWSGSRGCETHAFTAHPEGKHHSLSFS
Method: JAK3 kinase (33 pmols; Invitrogen) was incubated with (I-7) (327 pmols) for 3 hrs at 10× excess prior to tryptic digestion. Iodoacetamide was used as the alkylating agent after compound incubation. For tryptic digests a 5 ul aliquot (5.5 pmols) was diluted with 15 ul of 0.1% TFA prior to micro C18 Zip Tipping directly onto the MALDI target using alpha cyano-4-hydroxy cinnamic acid as the matrix (5 mg/ml in 0.1% TFA:Acetonitrile 50:50).
As depicted in FIG. 11, the expected peptide ([…]) to be modified was immediately evident as the largest peak at MH+ of 1725.88. This is the mass to be expected when compound I-7, with an adduct mass of 345.16, is added to the peptide mass of 1380.70. […] There was also evidence for a number of other modified peptides, however, their signals were low.
To further verify the presence of the modified peptides with compound I-7, the peptides at MH+ of 1725.88 and 1118.55 were subjected to PSD (MS/MS) analysis. A correlational analysis with the homosapien database identified the correct peptides as being modified by I-7.
For tryptic digests the instrument was set in Reflectron mode with a pulsed extraction setting of 2200. Calibration was done using the Laser Biolabs Pep Mix standard ([…], 1296.69, 1672.92, 2093.09, 2465.20). […]

[7] = target: EGFR T790M (Homo sapiens (Human), UniProt P00533, T790M); test: EGFR mutant T790M inhibition assay; type: biochemical
Chain of EGFR T790M (P00533 25-1210 T790M): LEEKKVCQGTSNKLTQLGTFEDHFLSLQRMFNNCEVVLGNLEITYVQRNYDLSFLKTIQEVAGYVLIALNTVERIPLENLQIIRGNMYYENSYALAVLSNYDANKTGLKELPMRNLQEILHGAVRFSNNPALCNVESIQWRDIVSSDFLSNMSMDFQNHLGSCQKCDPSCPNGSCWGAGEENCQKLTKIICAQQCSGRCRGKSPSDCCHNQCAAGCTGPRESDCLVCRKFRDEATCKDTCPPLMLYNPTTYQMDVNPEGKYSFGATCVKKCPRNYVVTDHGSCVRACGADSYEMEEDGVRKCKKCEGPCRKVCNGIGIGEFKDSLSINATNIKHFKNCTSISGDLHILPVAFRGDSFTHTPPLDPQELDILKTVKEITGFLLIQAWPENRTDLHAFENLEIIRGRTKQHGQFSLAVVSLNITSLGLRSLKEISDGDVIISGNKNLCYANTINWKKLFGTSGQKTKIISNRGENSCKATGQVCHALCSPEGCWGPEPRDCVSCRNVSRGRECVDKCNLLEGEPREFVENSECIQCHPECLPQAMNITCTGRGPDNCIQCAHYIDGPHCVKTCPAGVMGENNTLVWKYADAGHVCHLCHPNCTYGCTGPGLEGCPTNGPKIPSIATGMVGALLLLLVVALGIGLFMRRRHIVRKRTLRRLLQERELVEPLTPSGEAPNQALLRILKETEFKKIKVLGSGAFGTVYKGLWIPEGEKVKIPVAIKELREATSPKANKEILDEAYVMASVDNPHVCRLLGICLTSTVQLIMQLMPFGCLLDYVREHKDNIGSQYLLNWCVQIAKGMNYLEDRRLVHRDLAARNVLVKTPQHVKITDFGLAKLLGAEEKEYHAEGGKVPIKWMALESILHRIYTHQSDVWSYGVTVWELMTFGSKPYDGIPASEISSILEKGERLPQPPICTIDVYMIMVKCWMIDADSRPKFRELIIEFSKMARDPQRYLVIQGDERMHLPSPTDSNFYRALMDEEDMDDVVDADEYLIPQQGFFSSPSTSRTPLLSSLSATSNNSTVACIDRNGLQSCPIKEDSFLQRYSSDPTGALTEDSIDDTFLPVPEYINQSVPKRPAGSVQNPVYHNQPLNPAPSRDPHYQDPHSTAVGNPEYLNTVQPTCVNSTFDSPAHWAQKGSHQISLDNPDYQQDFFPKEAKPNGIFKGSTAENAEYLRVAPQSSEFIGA
Method: The Omnia Assay Protocol for potency assessment against EGFR is performed as described in Example 251 above except that the EGFR-WT- and EGFR T790M/L858R-modified optimized reagent conditions are: […]

[8] = target: Erbb4 kinase domain (Homo sapiens (Human), UniProt Q15303); test: Mass spectrometry for ERBB4; type: binding; settings: 60 minutes at 10-fold excess of compound
Chain of Erbb4 kinase domain (Q15303 718-985): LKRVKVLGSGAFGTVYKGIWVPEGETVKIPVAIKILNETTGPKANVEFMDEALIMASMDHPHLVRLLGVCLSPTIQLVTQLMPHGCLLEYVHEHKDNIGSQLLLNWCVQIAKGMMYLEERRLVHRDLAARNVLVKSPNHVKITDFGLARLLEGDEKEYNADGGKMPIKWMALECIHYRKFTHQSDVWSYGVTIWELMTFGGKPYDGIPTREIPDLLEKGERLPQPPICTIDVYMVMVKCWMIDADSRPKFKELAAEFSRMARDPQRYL
Method: Erbb4 kinase domain (Upstate) was incubated with compound for 60 minutes at 10-fold excess of compound I-4 and I-11 to protein. 1 μl aliquots of the samples (total volume of 4.24 ul) were diluted with 10 μl of 0.1% TFA prior to micro C4 ZipTipping directly onto the MALDI target using Sinapinic acid as the desorption matrix (10 mg/ml in 0.1% TFA:Acetonitrile 50:50). For intact protein mass measurement the instrument was set in Linear mode using a pulsed extraction setting of 16,952 for the myoglobin standard used to calibrate the instrument (Shimadzu Axima TOF^2).
Intact ErbB4 protein occurs at MH+ of 35850 with corresponding sinapinic (matrix) adducts occurring about 200 Da higher. A stochiometric incorporation of the test compound (I-4 and I-11) (Mw of 410 Da) produced a new mass peak which is approximately 410 Da higher (MH+ of 36260).

| SMILES | % Inhibition IgG3 (1:100) [1] [%] | % Inhibition IgM (1:1600) [1] [%] | BTK occupancy (BTK available to probe I-215) [2] | % inhibition foot pad swelling [3] [%] | time BTK protein remains occupied after compound removal [4] | covalent modification of BTK (mass spectrometry) [5] | covalent modification of JAK3 (Cys909, peptide LVMEYLPSGCLR) by mass spectrometry [6] | IC50 [7] [µM] | covalent modification of ErbB4 (mass spectrometry) [8] |
| --- | --- | --- | --- | --- | --- | --- | --- | --- | --- |
| C=CC(=O)Nc1cccc(Nc2nc(Nc3ccccc3)ncc2C)c1 [Compound I-7, N-(3-(5-methyl-2-(phenylamino)pyrimidin-4-ylamino)phenyl) acrylamide] | 57 | 48 | fully occupied | 83 | over 8 hours | complete modification; also recorded: covalent modification | not entirely complete; also recorded: covalent modification | – | – |
| Cc1cccc(Nc2nc(Nc3cccc(NC(=O)/C=C/CN(C)C)c3)ncc2F)c1 [Compound I-4, (E)-4-(dimethylamino)-N-(3-(5-fluoro-4-(m-tolylamino)pyrimidin-2-ylamino)phenyl)but-2-enamide] | – | – | – | – | – | – | – | < 0.01 | covalent modification |
